# Source: publication PMC3087488 (Journal of Oncology, 2011)
# Test: adverse events in patients (CTCAE version 3.0)
# Assay type: in vivo, human
# Details: for Any motesanib-related AE, Grade 3 / Any motesanib-related AE, Grade 4 / Any motesanib-related AE, Grade 5 / Motesanib-related AE: Anorexia / Motesanib-related AE: Constipation / Motesanib-related AE: Deep vein thrombosis / Motesanib-related AE: Dehydration / Motesanib-related AE: Dermatitis acneiform / Motesanib-related AE: Diarrhea / Motesanib-related AE: Erythema / Motesanib-related AE: Fatigue / Motesanib-related AE: Hypertension / Motesanib-related AE: Nausea / Motesanib-related AE: Pulmonary embolism / Motesanib-related AE: Rash / Motesanib-related AE: Vomiting / Motesanib-related Arterial thromboembolic events (all grades) / Motesanib-related Arterial thrombosis, Grade 3 / Motesanib-related Arterial thrombosis, Grade 4 / Motesanib-related Cerebrovascular accident, Grade 2 / Motesanib-related Deep vein thrombosis, Grade 2 / Motesanib-related Deep vein thrombosis, Grade 3 / Motesanib-related Gallbladder disorder, Grade 1 / Motesanib-related Hemorrhagic events, Grade 1 / Motesanib-related Jugular vein thrombosis, Grade 2 / Motesanib-related Neutropenia, Grade 3 / Motesanib-related Pulmonary embolism, Grade 4 / Motesanib-related Pulmonary embolism, Grade 5 / Motesanib-related Venous thromboembolic events (all grades) / Patients with any motesanib-related AE: gemcitabine/cisplatin
# Protocol: Adverse events were recorded throughout the study and graded (including DLTs) according to the Common Terminology Criteria for Adverse Events, version 3.0. Samples for assessment of hematology, blood chemistry, urinalysis, and thyroid function were collected on day 1 of each cycle.
# [1] = 33 patients who received motesanib, all cohorts
# [2] = listed after the 125-mg QD cohort
# [3] = motesanib 50 mg QD (n = 8) + panitumumab
# [4] = motesanib 75 mg BID (n = 2) + panitumumab
# [5] = motesanib 75 mg QD (n = 6) + panitumumab
structure (smiles),measurement,setting,value
CC1(C)CNc2cc(NC(=O)c3cccnc3NCc3ccncc3)ccc21 [motesanib],grade 3 cholelithiasis,100 mg QD cohort,One
same,grade 1 jaundice,125 mg QD cohort,one
same,motesanib-related anorexia,[1],8 patients
same,motesanib-related diarrhea,[1],10 patients
same,motesanib-related fatigue,[1],14 patients
same,motesanib-related hypertension,[1],15 patients
same,motesanib-related nausea,[1],15 patients
same,motesanib-related pulmonary embolism,[1],8 patients
same,motesanib-related vomiting,[1],8 patients
same,patients with serious motesanib-related adverse events,125-mg QD cohort,8 patients
same,hypothyroidism,all cohorts,did not occur
same,patients who discontinued motesanib because of adverse events,all cohorts,13 patients
same,patients with motesanib-related venous thromboembolic events,"all cohorts, 10 patients",24%
same,patients with grade 4 or 5 pulmonary embolism,"all cohorts, eight patients (one grade 5)",20%
same,patients with deep vein thrombosis (grade 2 or 3),"all cohorts, four patients",10%
same,patients with serious adverse events considered related to motesanib,"all cohorts, fourteen patients",34%
same,patients with grade 2 jugular vein thrombosis,"all cohorts, one patient",2%
same,patients with motesanib-related serious adverse event with a worst grade of 4,"all cohorts, six patients",15%
same,patients with motesanib-related arterial thromboembolic events,"all cohorts, three patients",7%
same,cholecystitis,any tested dose level,did not occur
same,serious motesanib-related arterial thrombosis,[2],1 patients
same,serious motesanib-related asthenia,[2],1 patients
same,serious motesanib-related atrial fibrillation,[2],1 patients
same,serious motesanib-related confusional state,[2],1 patients
same,serious motesanib-related deep vein thrombosis,[2],2 patients
same,serious motesanib-related dehydration,[2],2 patients
same,serious motesanib-related diarrhea,[2],2 patients
same,serious motesanib-related headache,[2],1 patients
same,serious motesanib-related hyponatremia,[2],1 patients
same,serious motesanib-related pulmonary embolism,[2],3 patients
same,serious motesanib-related sudden death,[2],1 patients
same,"Any motesanib-related AE, Grade 3",[3],2 (25) n (%)
same,"Any motesanib-related AE, Grade 4",[3],0 (0) n (%)
same,"Any motesanib-related AE, Grade 5",[3],1 (13) n (%)
same,Motesanib-related AE: Anorexia,[3],2 (25) n (%)
same,Motesanib-related AE: Constipation,[3],0 (0) n (%)
same,Motesanib-related AE: Deep vein thrombosis,[3],1 (13) n (%)
same,Motesanib-related AE: Dehydration,[3],0 (0) n (%)
same,Motesanib-related AE: Dermatitis acneiform,[3],1 (13) n (%)
same,Motesanib-related AE: Diarrhea,[3],1 (13) n (%)
same,Motesanib-related AE: Erythema,[3],1 (13) n (%)
same,Motesanib-related AE: Fatigue,[3],4 (50) n (%)
same,Motesanib-related AE: Hypertension,[3],3 (38) n (%)
same,Motesanib-related AE: Nausea,[3],4 (50) n (%)
same,Motesanib-related AE: Pulmonary embolism,[3],1 (13) n (%)
same,Motesanib-related AE: Rash,[3],0 (0) n (%)
same,Motesanib-related AE: Vomiting,[3],2 (25) n (%)
same,Motesanib-related Arterial thromboembolic events (all grades),[3],1 (13) n (%)
same,"Motesanib-related Arterial thrombosis, Grade 3",[3],0 (0) n (%)
same,"Motesanib-related Arterial thrombosis, Grade 4",[3],0 (0) n (%)
same,"Motesanib-related Cerebrovascular accident, Grade 2",[3],1 (13) n (%)
same,"Motesanib-related Deep vein thrombosis, Grade 2",[3],1 (13) n (%)
same,"Motesanib-related Deep vein thrombosis, Grade 3",[3],0 (0) n (%)
same,"Motesanib-related Gallbladder disorder, Grade 1",[3],0 (0) n (%)
same,"Motesanib-related Hemorrhagic events, Grade 1",[3],1 (13) n (%)
same,"Motesanib-related Jugular vein thrombosis, Grade 2",[3],0 (0) n (%)
same,"Motesanib-related Neutropenia, Grade 3",[3],1 (13) n (%)
same,"Motesanib-related Pulmonary embolism, Grade 4",[3],0 (0) n (%)
same,"Motesanib-related Pulmonary embolism, Grade 5",[3],1 (13) n (%)
same,Motesanib-related Venous thromboembolic events (all grades),[3],2 (25) n (%)
same,Patients with any motesanib-related AE,[3],6 (75) n (%)
same,"Any motesanib-related AE, Grade 3",[4],1 (50) n (%)
same,"Any motesanib-related AE, Grade 4",[4],1 (50) n (%)
same,"Any motesanib-related AE, Grade 5",[4],0 (0) n (%)
same,Motesanib-related AE: Anorexia,[4],0 (0) n (%)
same,Motesanib-related AE: Constipation,[4],0 (0) n (%)
same,Motesanib-related AE: Deep vein thrombosis,[4],0 (0) n (%)
same,Motesanib-related AE: Dehydration,[4],0 (0) n (%)
same,Motesanib-related AE: Dermatitis acneiform,[4],0 (0) n (%)
same,Motesanib-related AE: Diarrhea,[4],1 (50) n (%)
same,Motesanib-related AE: Erythema,[4],0 (0) n (%)
same,Motesanib-related AE: Fatigue,[4],0 (0) n (%)
same,Motesanib-related AE: Hypertension,[4],1 (50) n (%)
same,Motesanib-related AE: Nausea,[4],0 (0) n (%)
same,Motesanib-related AE: Pulmonary embolism,[4],0 (0) n (%)
same,Motesanib-related AE: Rash,[4],2 (100) n (%)
same,Motesanib-related AE: Vomiting,[4],0 (0) n (%)
same,Motesanib-related Arterial thromboembolic events (all grades),[4],1 (50) n (%)
same,"Motesanib-related Arterial thrombosis, Grade 3",[4],0 (0) n (%)
same,"Motesanib-related Arterial thrombosis, Grade 4",[4],1 (50) n (%)
same,"Motesanib-related Cerebrovascular accident, Grade 2",[4],0 (0) n (%)
same,"Motesanib-related Deep vein thrombosis, Grade 2",[4],0 (0) n (%)
same,"Motesanib-related Deep vein thrombosis, Grade 3",[4],0 (0) n (%)
same,"Motesanib-related Gallbladder disorder, Grade 1",[4],0 (0) n (%)
same,"Motesanib-related Hemorrhagic events, Grade 1",[4],0 (0) n (%)
same,"Motesanib-related Jugular vein thrombosis, Grade 2",[4],0 (0) n (%)
same,"Motesanib-related Neutropenia, Grade 3",[4],0 (0) n (%)
same,"Motesanib-related Pulmonary embolism, Grade 4",[4],0 (0) n (%)
same,"Motesanib-related Pulmonary embolism, Grade 5",[4],0 (0) n (%)
same,Motesanib-related Venous thromboembolic events (all grades),[4],0 (0) n (%)
same,Patients with any motesanib-related AE,[4],2 (100) n (%)
same,"Any motesanib-related AE, Grade 3",[5],2 (33) n (%)
same,"Any motesanib-related AE, Grade 4",[5],2 (33) n (%)
